Our source for the IC50 values is article PMC4939481 (Bioorganic & medicinal chemistry letters, 2016).

Experiment [1] deals with recombinant human TDP1 (hTDP1) (Homo sapiens, UniProt Q9NUW8). Put plainly: Inhibition of recombinant human TDP1. It counts as biochemical, H. sapiens.
Experiment [2] deals with T1, recombinant human TDP2 (hTDP2) (Homo sapiens, UniProt O95551).
T1 sequence (O95551 1-362): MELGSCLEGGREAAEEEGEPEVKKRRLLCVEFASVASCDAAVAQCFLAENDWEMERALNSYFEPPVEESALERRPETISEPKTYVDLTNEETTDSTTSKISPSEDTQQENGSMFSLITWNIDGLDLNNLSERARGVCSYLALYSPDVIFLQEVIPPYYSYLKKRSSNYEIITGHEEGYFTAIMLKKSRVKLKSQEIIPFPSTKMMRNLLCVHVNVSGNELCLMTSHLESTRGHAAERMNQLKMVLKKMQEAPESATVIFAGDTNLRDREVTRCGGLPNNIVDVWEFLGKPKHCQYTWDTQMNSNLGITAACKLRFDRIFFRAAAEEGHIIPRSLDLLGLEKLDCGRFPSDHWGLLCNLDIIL
Kind of experiment: Inhibition of recombinant human TDP2. It counts as biochemical, H. sapiens.

Molecules are shown by their SMILES. Bounds are passed on as bounds.

Chain of recombinant human TDP1 (hTDP1) (Q9NUW8 whole entry): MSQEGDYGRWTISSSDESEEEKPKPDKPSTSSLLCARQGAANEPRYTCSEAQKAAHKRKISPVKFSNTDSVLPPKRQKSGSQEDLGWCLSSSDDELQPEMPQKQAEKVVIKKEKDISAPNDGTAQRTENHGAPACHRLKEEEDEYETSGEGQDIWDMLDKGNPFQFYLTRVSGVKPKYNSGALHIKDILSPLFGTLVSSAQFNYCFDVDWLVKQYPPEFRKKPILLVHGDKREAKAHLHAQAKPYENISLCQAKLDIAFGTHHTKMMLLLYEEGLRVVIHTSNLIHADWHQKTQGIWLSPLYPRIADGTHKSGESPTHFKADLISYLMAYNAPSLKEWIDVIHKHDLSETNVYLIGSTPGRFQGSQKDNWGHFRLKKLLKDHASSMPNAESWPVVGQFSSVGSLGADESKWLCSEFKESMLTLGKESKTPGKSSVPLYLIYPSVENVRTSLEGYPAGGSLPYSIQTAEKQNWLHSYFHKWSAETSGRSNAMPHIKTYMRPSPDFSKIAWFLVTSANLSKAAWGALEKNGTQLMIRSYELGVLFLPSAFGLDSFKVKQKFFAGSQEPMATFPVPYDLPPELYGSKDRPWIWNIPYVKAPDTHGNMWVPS

On to `COc1ccc(CC2C(=O)N(c3ccc([N+](=O)[O-])cc3)N=C2C(=O)O)cc1Oc1ccc(F)cc1` (stereo not drawn) [Compound 21], for which the IC50 in experiment [1] was > 200 µM; in experiment [2], 20 µM. With `O=C(Cc1ccccc1)NC(CSSCC(NC(=O)Cc1ccccc1)C(=O)O)C(=O)O` (stereo not drawn) [NSC3198], the IC50 in experiment [2] worked out at 9.5 µM.

The IC50 is the point on the concentration scale where inhibition reaches its midpoint.
